Patent US20140057840A1, “ANTI-ANDROGENIC AGENT, SEBUM SECRETION BLOCKER, HAIR GROWTH STIMULANT, AND FOOD OR BEVERAGE” (LOTTE CO., LTD., priority 2009, published 2014)

Tested on: hamster sebocytes
Test: Sebocyte culture test (sebum synthesis amount, Oil Red O staining)
Type: cell-based, golden hamster
Conditions: concentration of 1×10^−5 M; microscopic observation and absorbance measurement; medium with 1×10^−6M testosterone; about 2 weeks
Protocol: 1. The test was carried out using a hamster sebocyte culture kit KB-1000 (manufactured by KURABO […] LTD.).
The sebocyte cell derived from the auricula of a normal golden hamster was inoculated in a 24-well plate in a density of 5.0×10^4 cells/well. During the test, the cell was cultured in medium containing testosterone in a concentration of 1×10^−6M.
2. The cell was cultured for several days until confluent, and the medium was exchanged with medium containing the test sample. The medium was exchanged with sample medium every other day and the culture was continued for about 2 weeks.
In this test, cow's lactoferrin was prepared to be used as the lactoferrin, and spironolactone was used as a control.
3. Then, using a sebum synthesis assay kit SE-3001 (manufactured by KURABO […], LTD.), a WST-8 solution was added to each well and incubated for 30 minutes at 37° C. The supernatant was assayed at a wavelength of 450 nm, and the number of viable cell was counted.
4. Further, the supernatant was stained with Oil Red O and observed under a microscope while extracted with 100% isopropanol and measured at a wavelength of 520 nm for the lipid synthesis amount. […]
Comparison of lipid synthesis amount per cell=absorbance B/absorbance A
Absorbance A: cell number measured value (450 nm)
Absorbance B: lipid synthesis amount measured value (520 nm)

SMILES: CC(=O)S[C@@H]1CC2=CC(=O)CC[C@]2(C)[C@H]2CC[C@@]3(C)[C@@H](CC[C@@]34CCC(=O)O4)[C@H]12 [spironolactone, reference compound]
- sebum synthesis amount compared with the control: decreased sebum synthesis amount compared with the control
